Reference: patent US12643871B2, “Aryl formamide compound containing chiral sulfur oxide or salt thereof, preparation method, herbicidal composition and use thereof” (Qingdao Kingagroot Chemical Compound Co., Ltd., priority 2019, dated 2026)

Legend:
Experiment in all cases: Weeding effect in post-emergence stage
Type in all cases: in vivo
Conditions in all cases: 250 g/ha; 2 leaf stage; 15 days after application; fresh weight control rate
Abutilon theophrasti = test system: Abutilon theophrasti
Procedure, shortened: (§1)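 Two-leaf-stage pot plants, spray-tower application at 500/250/125/60/30/15 g/ha with methyl oleate EC synergist; fresh weight control level (0–5) read at 15 days post-treatment, three replicates averaged.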

Digitaria sanguinalis = test system: Digitaria sanguinalis
Procedure, shortened: as §1

Amaranthus retroflexus = test system: Amaranthus retroflexus
Procedure, shortened: as §1

Echinochloa crusgali = test system: Echinochloa crusgali
Procedure, shortened: as §1

Setaria viridis = test system: Setaria viridis
Procedure, shortened: as §1

| Compound | weeding effect in post-emergence stage, activity level (growth control rate), Abutilon theophrasti (Abutilon theophrasti) | weeding effect in post-emergence stage, activity level (growth control rate), Digitaria sanguinalis (Digitaria sanguinalis) | weeding effect in post-emergence stage, activity level (growth control rate), Amaranthus retroflexus (Amaranthus retroflexus) | weeding effect in post-emergence stage, activity level (growth control rate), Echinochloa crusgali (Echinochloa crusgali) | weeding effect in post-emergence stage, activity level (growth control rate), Setaria viridis (Setaria viridis) |
| --- | --- | --- | --- | --- | --- |
| COC[S@+]([O-])c1c(C(F)(F)F)ccc(C(=O)Nc2nnc(C)o2)c1OC [Compound 342] | 5 (Level 5: growth control rate is above 85%) | 5 (Level 5: growth control rate is above 85%) | 5 (Level 5: growth control rate is above 85%) | 5 (Level 5: growth control rate is above 85%) | 5 (Level 5: growth control rate is above 85%) |
| CCOC[S@+]([O-])c1c(C(F)(F)F)ccc(C(=O)Nc2nnc(C)o2)c1OC [Compound 343] | 5 (Level 5: growth control rate is above 85%) | 5 (Level 5: growth control rate is above 85%) | 5 (Level 5: growth control rate is above 85%) | 5 (Level 5: growth control rate is above 85%) | 5 (Level 5: growth control rate is above 85%) |
| COCC[S@@+]([O-])c1c(C(F)(F)F)ccc(C(=O)Nc2nnc(C)o2)c1OC [Compound 344] | 5 (Level 5: growth control rate is above 85%) | 5 (Level 5: growth control rate is above 85%) | 5 (Level 5: growth control rate is above 85%) | 5 (Level 5: growth control rate is above 85%) | 5 (Level 5: growth control rate is above 85%) |
| COCCC[S@@+]([O-])c1c(C(F)(F)F)ccc(C(=O)Nc2nnc(C)o2)c1OC [Compound 345] | 5 (Level 5: growth control rate is above 85%) | 5 (Level 5: growth control rate is above 85%) | 5 (Level 5: growth control rate is above 85%) | 5 (Level 5: growth control rate is above 85%) | 5 (Level 5: growth control rate is above 85%) |
| COc1c(C(=O)Nc2nnc(C)o2)ccc(C(F)(F)F)c1[S@+]([O-])C1COC1 [Compound 346] | 5 (Level 5: growth control rate is above 85%) | 5 (Level 5: growth control rate is above 85%) | 5 (Level 5: growth control rate is above 85%) | 5 (Level 5: growth control rate is above 85%) | 5 (Level 5: growth control rate is above 85%) |
| COc1c(C(=O)Nc2nnc(C)o2)ccc(C(F)(F)F)c1[S+]([O-])COCc1ccccc1 (centres unmarked) [Compound 347] | 5 (Level 5: growth control rate is above 85%) | 5 (Level 5: growth control rate is above 85%) | 5 (Level 5: growth control rate is above 85%) | 5 (Level 5: growth control rate is above 85%) | 5 (Level 5: growth control rate is above 85%) |
| CCC[S@@+]([O-])c1c(C(F)(F)F)ccc(C(=O)Nc2nnco2)c1F [Compound 357] | 5 (Level 5: growth control rate is above 85%) | 5 (Level 5: growth control rate is above 85%) | 5 (Level 5: growth control rate is above 85%) | 5 (Level 5: growth control rate is above 85%) | 5 (Level 5: growth control rate is above 85%) |
| CCC[S@@+]([O-])c1c(C(F)(F)F)ccc(C(=O)Nc2nnc(CC)o2)c1F [Compound 358] | 5 (Level 5: growth control rate is above 85%) | 5 (Level 5: growth control rate is above 85%) | 5 (Level 5: growth control rate is above 85%) | 5 (Level 5: growth control rate is above 85%) | 5 (Level 5: growth control rate is above 85%) |
| CCC[S@@+]([O-])c1c(C(F)(F)F)ccc(C(=O)Nc2nnc(C(C)C)o2)c1F [Compound 359] | 5 (Level 5: growth control rate is above 85%) | 5 (Level 5: growth control rate is above 85%) | 5 (Level 5: growth control rate is above 85%) | 5 (Level 5: growth control rate is above 85%) | 5 (Level 5: growth control rate is above 85%) |
| CC[S@@+]([O-])c1c(C(F)(F)F)ccc(C(=O)Nc2nnco2)c1OC [Compound 423] | 5 (Level 5: growth control rate is above 85%) | 5 (Level 5: growth control rate is above 85%) | 5 (Level 5: growth control rate is above 85%) | 5 (Level 5: growth control rate is above 85%) | 5 (Level 5: growth control rate is above 85%) |
| CCc1nnc(NC(=O)c2ccc(C(F)(F)F)c([S@+]([O-])CC)c2OC)o1 [Compound 424] | 5 (Level 5: growth control rate is above 85%) | 5 (Level 5: growth control rate is above 85%) | 5 (Level 5: growth control rate is above 85%) | 5 (Level 5: growth control rate is above 85%) | 5 (Level 5: growth control rate is above 85%) |
| CC[S@@+]([O-])c1c(C(F)(F)F)ccc(C(=O)Nc2nnnn2C)c1OC [Compound 445] | 5 (Level 5: growth control rate is above 85%) | 5 (Level 5: growth control rate is above 85%) | 5 (Level 5: growth control rate is above 85%) | 5 (Level 5: growth control rate is above 85%) | 5 (Level 5: growth control rate is above 85%) |
| CCn1nnnc1NC(=O)c1ccc(C(F)(F)F)c([S@+]([O-])CC)c1OC [Compound 446] | 5 (Level 5: growth control rate is above 85%) | 5 (Level 5: growth control rate is above 85%) | 5 (Level 5: growth control rate is above 85%) | 5 (Level 5: growth control rate is above 85%) | 5 (Level 5: growth control rate is above 85%) |
| CCCn1nnnc1NC(=O)c1ccc(C(F)(F)F)c([S@+]([O-])CC)c1OC [Compound 447] | 5 (Level 5: growth control rate is above 85%) | 5 (Level 5: growth control rate is above 85%) | 5 (Level 5: growth control rate is above 85%) | 5 (Level 5: growth control rate is above 85%) | 5 (Level 5: growth control rate is above 85%) |
| CCC[S@@+]([O-])c1c(C(F)(F)F)ccc(C(=O)Nc2nnc(C)o2)c1OC [Compound 531] | 5 (Level 5: growth control rate is above 85%) | 5 (Level 5: growth control rate is above 85%) | 5 (Level 5: growth control rate is above 85%) | 5 (Level 5: growth control rate is above 85%) | 5 (Level 5: growth control rate is above 85%) |
| CCC[S@@+]([O-])c1c(C(F)(F)F)ccc(C(=O)Nc2nnc(C)o2)c1OCC [Compound 532] | 5 (Level 5: growth control rate is above 85%) | 5 (Level 5: growth control rate is above 85%) | 5 (Level 5: growth control rate is above 85%) | 5 (Level 5: growth control rate is above 85%) | 5 (Level 5: growth control rate is above 85%) |
